In the assay the target is T1, human alpha-thrombin (Homo sapiens, UniProt P00734).
T1 construct: were reacted with 1.3 picomoles of human alpha-thrombin
Nature of the assay: Thrombin inhibition, residual amidolysis of chromogenic substrate S-2238. The class given is biochemical. To be noted: 0.13-1.3 picomoles hirudin with 1.3 picomoles human alpha-thrombin, 0.05 M Tris-HCl pH 7.4, 0.1% BSA, 1 hour at 22° C. The procedure: Aliquots of the supernatants were diluted with the Tris-BSA buffer and the reaction initiated by addition of S-2238. Reaction velocities were monitored at 410 nanometers and used to determine thrombin activity. Moles of hirudin analog and its derivatives in each assay were determined by radioiodinated hirudin analog tracer.

Take “rHV2 Phe^3 Gln^33 Tyr^35 Lys^47 Asp^63 [H-Tyr]”: the “Thrombin Inhibition (Specific Activity: % of H-Tyr)” value is 100 % of H-Tyr.

These data come from patent publication US6028170A, “Analogs of hirudin” (Baxter International Inc., priority 1998, dated 2000).
